Source: US20130281465A1, “PYRAZOLE DERIVATIVE” (TAISHO PHARMACEUTICAL CO., LTD., priority 2010, published 2013)

Columns and labels:
[1] = target: T1, human orexin type 1 receptor (hOX1R) (Homo sapiens, UniProt O43613); assay: Orexin receptor antagonistic activity, intracellular Ca2+ fluorescence (FDSS) in CHO cells expressing hOX1R; type: cell-based; settings: CHO cells forced to express hOX1R; orexin-A analogue peptide ligand 300 pM; Fluo-4 maximum fluorescence; read-out: IC50 value OX1R
T1 construct: expressed in transfected cells; host or cells: Chinese hamster ovary (CHO) cells
T1 sequence (O43613 1-425): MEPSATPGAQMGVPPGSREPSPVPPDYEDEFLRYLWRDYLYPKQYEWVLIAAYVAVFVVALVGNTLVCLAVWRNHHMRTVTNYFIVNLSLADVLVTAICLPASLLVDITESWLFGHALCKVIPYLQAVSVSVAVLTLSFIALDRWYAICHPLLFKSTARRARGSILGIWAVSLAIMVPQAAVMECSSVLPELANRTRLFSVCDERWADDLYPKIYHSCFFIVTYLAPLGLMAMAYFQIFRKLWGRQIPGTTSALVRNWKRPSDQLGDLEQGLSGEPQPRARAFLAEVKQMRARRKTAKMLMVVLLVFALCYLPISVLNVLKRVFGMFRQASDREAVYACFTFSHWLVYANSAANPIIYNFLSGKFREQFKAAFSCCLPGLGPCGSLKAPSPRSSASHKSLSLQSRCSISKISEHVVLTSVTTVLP
Method: (§1) The antagonistic activity of each test compound against human orexin type 1 receptor (hOX1R) and orexin type 2 receptor (hOX2R) was performed as described in the literature with a modification (Toshikatsu Okumura et al., Biochemical and Biophysical Research Communications 280, 976-981, 2001). Chinese hamster ovary (CHO) cells forced to express hOX1R or hOX2R were seeded at 20,000 cells/well on a 96 well Black clear bottom plates (Nunc) and cultured for 16 hours under conditions of 37° C. and 5% CO2 using a Ham's F-12 medium containing 0.1 mM MEM non-essential amino acids, 0.5 mg/ml G418, and 10% fetal bovine serum (all from Invitrogen Corp.). After removal of the medium, 100 μL of the assay buffer (25 mM HEPES (Dojindo Laboratories), Hanks' balanced salt solution (Invitrogen Corp.), 0.1% bovine serum albumin, 2.5 mM probenecid, 200 μg/ml Amaranth (all from Sigma-Aldrich Corp.), pH 7.4) containing 0.5 μM Fluo-4AM ester (Dojindo Laboratories) was added thereto, and the cells were incubated for 60 minutes under conditions of 37° C. and 5% CO2. After removal of the buffer solution for assay containing Fluo-4AM ester, the test compound was dissolved at a concentration of 10 mM in dimethyl sulfoxide and diluted with the assay buffer, and 150 μL of the diluted solution was then added to each wells, which were then incubated for 30 minutes.
(§2) A peptide (Pyr-[…]11e-Leu-Thr-Leu-NH2; Peptide Institute, Inc.) substituted 2 amino acids of human orexin-A was diluted with the assay buffer to 300 pM (final concentration for hOX1R) or 3 nM (final concentration for hOX2R). 50 μL of this ligand solution was added thereto to start reaction. During the reaction, the fluorescence value of each well was measured every one second for 3 minutes using Functional Drug Screening System (FDSS; manufactured by Hamamatsu Photonics K.K.), and antagonistic activity was determined with the maximum fluorescence value as an index for intracellular Ca^2+ concentration. The antagonistic activity of the test compound was calculated with the fluorescence value of a well supplemented with only a dilution buffer solution as 100% and the fluorescence value of a well supplemented with a buffer solution containing neither the ligand nor the compound as 0%, and determined in terms of 50% inhibitory concentration (IC50 value) from fluorescence values derived from the test compound added at varying concentrations.

[2] = target: T2, orexin type 2 receptor (hOX2R) (Homo sapiens, UniProt O43614); assay: Orexin receptor antagonistic activity, intracellular Ca2+ fluorescence (FDSS) in CHO cells expressing hOX2R; type: cell-based; settings: CHO cells forced to express hOX2R; orexin-A analogue peptide ligand 3 nM; Fluo-4 maximum fluorescence; read-out: IC50 value OX2R
T2 construct: expressed in transfected cells; host or cells: Chinese hamster ovary (CHO) cells
T2 sequence (O43614 1-444): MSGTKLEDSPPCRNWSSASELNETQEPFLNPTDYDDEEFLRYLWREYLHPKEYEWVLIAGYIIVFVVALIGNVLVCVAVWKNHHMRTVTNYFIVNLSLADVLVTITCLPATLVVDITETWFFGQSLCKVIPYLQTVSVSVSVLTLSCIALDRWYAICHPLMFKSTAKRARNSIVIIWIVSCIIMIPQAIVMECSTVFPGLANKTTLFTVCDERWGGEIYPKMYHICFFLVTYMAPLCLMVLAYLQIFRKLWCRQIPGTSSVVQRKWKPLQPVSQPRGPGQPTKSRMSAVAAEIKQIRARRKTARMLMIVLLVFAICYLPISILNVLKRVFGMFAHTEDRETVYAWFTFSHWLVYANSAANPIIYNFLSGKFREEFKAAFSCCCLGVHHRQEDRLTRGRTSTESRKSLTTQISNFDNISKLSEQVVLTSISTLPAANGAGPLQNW
Method: as §1, §2

SMILES | IC50 [1] | IC50 [2]
CN(CCn1ccc(-c2ccc(F)cn2)n1)C(=O)c1cc(F)ccc1-n1nccn1 [Example 23-2, N-methyl-N-{2-[3-(5-fluoropyridin-2-yl)-1H-pyrazol-1-yl]ethyl}-5-fluoro-2-(2H-1,2,3-triazol-2-yl)benzamide] | 76 nM | 132 nM
CCN(CCn1ccc(-c2ccccn2)n1)C(=O)c1cc(C)ccc1-n1nccn1 [Example 9, N-ethyl-5-methyl-N-{2-[3-(pyridin-2-yl)-1H-pyrazol-1-yl]ethyl}-2-(2H-1,2,3-triazol-2-yl)benzamide] | 1 nM | 4.3 nM
CCN(CCn1ccc(-c2cccc(C)n2)n1)C(=O)c1cc(C)ccc1-n1nccn1 [Example 39, N-ethyl-5-methyl-N-{2-[3-(6-methylpyridin-2-yl)-1H-pyrazol-1-yl]ethyl}-2-(2H-1,2,3-triazol-2-yl)benzamide] | 1.5 nM | 2.2 nM
Cc1ccc(-n2nccn2)c(C(=O)N(CCn2cc(-c3ccc(F)cn3)cn2)C(C)C)c1 [Example 14, N-{2-[4-(5-fluoropyridin-2-yl)-1H-pyrazol-1-yl]ethyl}-5-methyl-N-(propan-2-yl)-2-(2H-1,2,3-triazol-2-yl)benzamide] | 597 nM | 412 nM
CCN(CCn1ccc(-c2ccc(F)cn2)n1)C(=O)c1ccc(C)cc1-n1nccn1 [Example 47, N-ethyl-N-{2-[3-(5-fluoropyridin-2-yl)-1H-pyrazol-1-yl]ethyl}-4-methyl-2-(2H-1,2,3-triazol-2-yl)benzamide] | 0.8 nM | 7.1 nM
Cc1ccc(-n2nccn2)c(C(=O)N(CCn2ccc(-c3ccccc3)n2)CC2CC2)c1 [Example 29, N-(cyclopropylmethyl)-5-methyl-N-[2-(3-phenyl-1H-pyrazol-1-yl)ethyl]-2-(2H-1,2,3-triazol-2-yl)benzamide] | 1.5 nM | 6.1 nM

More lines, in order of falling IC50 [1], values ahead:

IC50 [1] | IC50 [2] | SMILES
1040 nM | 2390 nM | Cc1ccc(-n2nccn2)c(C(=O)NCCn2cc(-c3ccc(F)cn3)cn2)c1 [Example 1, N-{2-[4-(5-fluoropyridin-2-yl)-1H-pyrazol-1-yl]ethyl}-5-methyl-2-(2H-1,2,3-triazol-2-yl)benzamide]
239 nM | 1130 nM | CCN(CCn1ccc(-c2cc(C(F)(F)F)ccn2)n1)C(=O)c1cc(F)ccc1-c1ncccn1 [Example 61, N-ethyl-5-fluoro-2-(pyrimidin-2-yl)-N-(2-{3-[4-(trifluoromethyl)pyridin-2-yl]-1H-pyrazol-1-yl}ethyl)benzamide]
78.9 nM | 140 nM | CCN(CCn1ccc(-c2cccc(C(F)(F)F)n2)n1)C(=O)c1ccccc1-c1ncccn1 [Example 58, N-ethyl-(pyrimidin-2-yl)-N-(2-{3-[6-(trifluoromethyl)pyridin-2-yl]-1H-pyrazol-1-yl}ethyl)benzamide]
38.7 nM | 46.9 nM | CCN(CCn1ccc(-c2ccc(F)cn2)n1)C(=O)c1c(F)cccc1-n1nccn1 [Example 45, N-ethyl-2-fluoro-N-{2-[3-(5-fluoropyridin-2-yl)-1H-pyrazol-1-yl]ethyl}-6-(2H-1,2,3-triazol-2-yl)benzamide]
30.6 nM | 58.9 nM | CCN(CCn1ccc(-c2ccc(F)cn2)n1)C(=O)c1cc(C)ccc1-c1cccnc1 [Example 36, N-ethyl-N-{2-[3-(5-fluoropyridin-2-yl)-1H-pyrazol-1-yl]ethyl}-5-methyl-2-(pyridin-3-yl)benzamide]
20 nM | 214 nM | CCN(CCn1ccc(-c2ccc(F)cn2)n1)C(=O)c1cc(OC)ccc1-n1nccn1 [Example 50, N-ethyl-N-{2-[3-(5-fluoropyridin-2-yl)-1H-pyrazol-1-yl]ethyl}-5-methoxy-2-(2H-1,2,3-triazol-2-yl)benzamide]
10.5 nM | 32.5 nM | Cc1ccc(-n2nccn2)c(C(=O)N(CCn2ccc(-c3ccc(F)cn3)n2)CC(F)F)c1 [Example 22, N-(2,2-difluoroethyl)-N-{2-[3-(5-fluoropyridin-2-yl)-1H-pyrazol-1-yl]ethyl}-5-methyl-2-(2H-1,2,3-triazol-2-yl)benzamide]
